The target of assay [1] is T1, rat kidney medullary V2 receptors (Rattus norvegicus, UniProt Q00788).
T1 construct: Medullary tissues from rat kidneys are dissected out; from tissue; host or cells: rat kidney medulla membranes
Briefly: Binding Assay to Rat Kidney Medullary V2 Receptors. The note with it: for IC50: rat kidney medullary V2; for inhibition at 10 µM: rat kidney, read-out: V2, % at concentration in brackets. An outline of the steps: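 Competition binding: [3H]AVP at 0.8 nM, test compounds from 50% DMSO, and membranes from rat kidney medulla, left 120 min on the bench. Filtration then liquid scintillation counting measured bound ligand; 1.0 μM unlabeled ligand set non-specific binding.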

For a further assay, the system named is vasopressin V2. Briefly: Vasopressin V2 Antagonist Activity in Conscious Hydrated Rats (diuretic effect). The class given is in vivo, normal Sprague-Dawley rats. The note with it: AVP 0.4 μg/kg i.p. The gist of the method: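 Conscious rats were dosed orally at 0.1–100 mg/kg, and AVP 0.4 μg/kg i.p. in peanut oil followed 1 h later. Urine volume, osmolality and Na/K/Cl were compared against AVP-treated controls, with non-AVP rats as water-loading controls.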

A further assay deals with vasopressin V1. Briefly: Vasopressin V1 Antagonist Activity in Conscious Rats (vasopressin vasopressor response). Details: Average Change: unit not given here. It counts as in vivo, rat (spontaneously hypertensive rats). The gist of the method:
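Conscious rats had the ventral caudal tail artery cannulated into the lower abdominal aorta under local procaine anesthesia, plus a caudal vein cannula for intravenous dosing. Pulsatile blood pressure was recorded via a Statham P23Db transducer. Vasopressor responses to vasopressin injections were measured before and after compound dosing, with percent antagonism calculated relative to the pre-drug response taken as 100%.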

Assay [2] concerns the target vasopressin V1 receptor (rat liver plasma membranes) (Rattus norvegicus, UniProt P30560). Briefly: Binding Assay to Rat Hepatic V1 Receptors. The note with it: for IC50: rat hepatic V1; for inhibition at 10 µM: 2 h, rat hepatic, read-out: V1, % at concentration in brackets.
The target in assay [3] is T2, oxytocin receptors (rat uterus membranes) (Rattus norvegicus, UniProt P70536).
T2 construct: The resulting pellet containing the oxytocin receptors is resuspended; from tissue; host or cells: uterus membranes of DES-treated female Sprague-Dawley rats
T2 sequence (P70536 1-388): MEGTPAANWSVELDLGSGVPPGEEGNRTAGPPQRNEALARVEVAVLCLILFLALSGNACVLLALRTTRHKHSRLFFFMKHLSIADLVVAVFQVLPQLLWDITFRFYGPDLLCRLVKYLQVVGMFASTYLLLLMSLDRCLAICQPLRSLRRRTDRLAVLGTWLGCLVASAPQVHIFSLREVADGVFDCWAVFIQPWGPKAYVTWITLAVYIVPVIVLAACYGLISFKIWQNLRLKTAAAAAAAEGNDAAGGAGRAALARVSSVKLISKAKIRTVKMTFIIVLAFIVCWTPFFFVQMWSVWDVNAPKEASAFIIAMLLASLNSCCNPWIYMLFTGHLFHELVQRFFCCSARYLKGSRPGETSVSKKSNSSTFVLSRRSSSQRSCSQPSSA
Briefly: Oxytocin Receptor Binding. Set-up: species or system female Sprague-Dawley rats. The method, then:
Female Sprague-Dawley rats weighing approximately 200-250 g are injected intramuscularly (i.m.) with 0.3 mg/kg of body weight of diethylstilbestrol (DES). The rats are sacrificed 18 hours later under pentobarbital anesthesia. The uteri are dissected out, cleaned of fat and connective tissues and rinsed in 50 ml of normal saline. The tissue pooled from six rats is homogenized in 50 ml of […] Tris.HCl, containing 0.5 mM dithiothreitol and 1.0 mM EDTA, adjusted to pH 7.4, using a polytron at setting 6 with three passes of 10 sec each. The homogenate is passed through two (2) layers of cheesecloth and the filtrate centrifuged at 1000×g for 10 min. The clear supernatant is removed and recentrifuged at 165,000×g for 30 min. The resulting pellet containing the oxytocin receptors is resuspended in 50.0 mM Tris.HCl containing 5.0 mM MgCl2 at pH 7.4, to give a protein concentration of 2.5 mg/ml of tissue suspension. This preparation is used in subsequent binding assays with [^3 H]Oxytocin.
Binding of 3,5-[^3 H]Oxytocin ([^3 H]OT) to its receptors is done in microtiter plates using [^3 H]OT, at various concentrations, in an assay buffer of 50.0 mM Tris.HCl, pH 7.4 and containing 5.0 mM MgCl2, and a mixture of protease inhibitors: BSA, 0.1 mg; aprotinin, 1.0 mg; 1,10-phenanthroline, 2.0 mg; […], 10.0 mg; and PMSF, 0.3 mg per 100 ml of buffer solution. Non-specific binding is determined in the presence of 1.0 uM unlabeled OT. The binding reaction is terminated after 60 min., at 22° C., by rapid filtration through glass fiber filters using a Brandel® cell harvester (Biomedical Research and Development Laboratories, Inc., Gaithersburg, Md.). Competition experiments are conducted at equilibrium using 1.0 nM [^3 H]OT and varying the concentration of the displacing agents. The concentrations of agent displacing 50% of [^3 H]OT at its sites (IC50) are calculated by a computer assisted LUNDON-2 program (LUNDON SOFTWARE INC., Ohio, USA).

The mark [4] stands for this setting: 10 mg/kg i.v., VAS 0.02 i.u./kg, 30 min.
Where [5] appears, read: 20 mg/kg i.v., VAS 0.01 i.u./kg, 60 min.
Where [6] appears, read: 20 mg/kg i.v., VAS 0.01 i.u./kg, 90 min.
Setting [7] is: 20 mg/kg i.v., VAS 0.01 i.u./kg, 120 min.
[8] abbreviates: 20 mg/kg i.v., VAS 0.01 i.u./kg, 180 min.
[9] abbreviates: 20 mg/kg i.v., VAS 0.01 i.u./kg, 240 min.
Where [10] appears, read: 20 mg/kg i.v., VAS 0.01 i.u./kg, 300 min.
Where [11] appears, read: 20 mg/kg i.v., VAS 0.02 i.u./kg, 60 min.
[12] abbreviates: 20 mg/kg i.v., VAS 0.02 i.u./kg, 90 min.
Setting [13] is: 20 mg/kg i.v., VAS 0.02 i.u./kg, 120 min.
Where [14] appears, read: 20 mg/kg i.v., VAS 0.02 i.u./kg, 180 min.
[15] abbreviates: 20 mg/kg i.v., VAS 0.02 i.u./kg, 240 min.
The mark [16] stands for this setting: 20 mg/kg i.v., VAS 0.02 i.u./kg, 300 min.

SMILES strings stand for the structures.

T1 sequence (Q00788 whole entry): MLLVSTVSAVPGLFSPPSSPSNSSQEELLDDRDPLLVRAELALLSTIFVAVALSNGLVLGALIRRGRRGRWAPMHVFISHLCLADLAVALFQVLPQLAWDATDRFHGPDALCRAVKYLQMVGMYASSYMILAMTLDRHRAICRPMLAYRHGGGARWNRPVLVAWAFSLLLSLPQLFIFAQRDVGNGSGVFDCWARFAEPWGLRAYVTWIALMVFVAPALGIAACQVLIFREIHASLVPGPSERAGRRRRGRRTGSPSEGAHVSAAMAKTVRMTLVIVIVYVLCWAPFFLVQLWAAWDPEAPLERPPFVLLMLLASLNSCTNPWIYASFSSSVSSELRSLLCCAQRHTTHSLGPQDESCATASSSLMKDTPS
Chain of vasopressin V1 receptor (rat liver plasma membranes) (P30560 whole entry): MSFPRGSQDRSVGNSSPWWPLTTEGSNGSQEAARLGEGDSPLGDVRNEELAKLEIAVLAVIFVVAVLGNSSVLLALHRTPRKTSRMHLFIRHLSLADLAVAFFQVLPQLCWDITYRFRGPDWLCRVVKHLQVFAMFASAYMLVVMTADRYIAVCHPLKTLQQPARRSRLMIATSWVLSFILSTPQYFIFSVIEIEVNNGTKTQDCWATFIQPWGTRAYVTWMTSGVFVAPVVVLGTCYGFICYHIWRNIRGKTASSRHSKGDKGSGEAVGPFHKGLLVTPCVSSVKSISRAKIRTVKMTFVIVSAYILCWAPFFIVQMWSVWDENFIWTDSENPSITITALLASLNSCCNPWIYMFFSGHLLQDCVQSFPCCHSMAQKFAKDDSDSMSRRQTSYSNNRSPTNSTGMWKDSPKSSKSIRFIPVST

One may read the IC50 as the midpoint of a concentration-inhibition curve. One may read the Inhibition as the drop in the measured response relative to a control, in per cent. On to `Cc1cccc(NC(=O)c2ccc(C(=O)N3Cc4ccccc4Cc4ccccc43)cc2)c1C` [Example 124, 4-[(6.11-Dihydro-5H-dibenz[b,e]azepin-5-yl)-carbonyl]-N-(2,3-dimethylphenyl)benzamide], for which the IC50 in assay [1] stood at 0.21 µM; in assay [2], 1.2 µM. For the same compound, in the assay on vasopressin V2 (10 mg/kg orally), the Osmolality was 1172 mOsm/kg. In addition, the “Urine Volume” value in the assay on vasopressin V2 (10 mg/kg orally) is reported as 5.5 ml/4 hrs. Moreover, the “Average Change” value is recorded as 38.5 in the assay on vasopressin V1 (10 mg/kg i.v., VAS 0.01 i.u./kg, 30 min); 43.5 with vasopressin V1 (setting [4]); 4 with vasopressin V1 (setting [5]); 12.5 in the assay with vasopressin V1 (setting [6]); 12.5 in the assay on vasopressin V1 (setting [7]); 21 in the assay with vasopressin V1 (setting [8]). Moreover, the “Average Change” value in the assay on vasopressin V1 (setting [9]) is on record as 18; with vasopressin V1 (setting [10]), 20; in the assay on vasopressin V1 (setting [11]) it was 17.5; in the assay with vasopressin V1 (setting [12]), 18; in the assay on vasopressin V1 (setting [13]), 9.5; in the assay on vasopressin V1 (setting [14]), 21.5. In addition, the “Average Change” value amounted to 24.5 in the assay with vasopressin V1 (setting [15]) and 33.5 with vasopressin V1 (setting [16]). Further, the Inhibition in the assay on vasopressin V1 (setting [4]) is -23%; in the assay with vasopressin V1 (setting [5]) it was 88%; in the assay with vasopressin V1 (setting [6]) it was 62%; in the assay with vasopressin V1 (setting [7]), 62%; in the assay on vasopressin V1 (setting [8]) it was 35%; in the assay on vasopressin V1 (setting [9]), 45%. For the same compound, the Inhibition is 38% in the assay with vasopressin V1 (setting [10]); 51% with vasopressin V1 (setting [11]); 49% in the assay with vasopressin V1 (setting [12]); 45% with vasopressin V1 (setting [13]); 39% in the assay on vasopressin V1 (setting [14]); 31% with vasopressin V1 (setting [15]). Also, the Inhibition with vasopressin V1 (setting [16]) worked out at 6%.
In turn, `Cc1ccccc1C(=O)Nc1ccc(C(=O)N2Cc3ccccc3Cc3cc(Cl)ccc32)cc1` [Example 136] displayed an IC50 in assay [1] of 0.027 µM. Moreover, in the assay with vasopressin V2 (30 mg/kg orally), the Osmolality worked out at 306 mOsm/kg and the “Urine Volume” value is 19 ml/4 hrs. In addition, in the assay with vasopressin V1 (10 mg/kg i.v.), the “MAX % Inhibition” value is 81% and the “Time of max % inhibition” value was 30 min. For the same compound, in assay [2], the IC50 is 0.016 µM.
The compound `O=C(Nc1ccc(C(=O)N2Cc3ccccc3Cc3cc(Cl)ccc32)cc1)c1ccc(Cl)cc1Cl` [Example 137, N-[4-[(2-Chloro-6,11-dihydro-5H-dibenz[b,e]azepin-5-yl)carbonyl]phenyl]2,4-dichlorobenzamide] had an IC50 in assay [1] of 0.064 µM. Moreover, in the assay with vasopressin V2 (30 mg/kg orally), the Osmolality stood at 358 mOsm/kg and the “Urine Volume” value is 15.8 ml/4 hrs. In the assay with vasopressin V1 (10 mg/kg i.v.), the “MAX % Inhibition” value was 52% and the “Time of max % inhibition” value came out at 30 min. In addition, in assay [2], the IC50 was found to be 0.076 µM.
Take `Cc1cccc(C(=O)Nc2ccc(C(=O)N3Cc4ccccc4Cc4cc(Cl)ccc43)cc2)c1C` [Example 138, N-[4-[(2-Chloro-6,11-dihydro-5H-dibenz[b,e]azepin-5-yl)carbonyl]phenyl]2,3-dimethylbenzamide]: the IC50 in assay [1] amounted to 0.051 µM. For the same compound, in the assay with vasopressin V2 (30 mg/kg orally), the Osmolality worked out at 380 mOsm/kg and the “Urine Volume” value was 13.8 ml/4 hrs. Also, in the assay with vasopressin V1 (10 mg/kg i.v.), the “MAX % Inhibition” value stood at 88% and the “Time of max % inhibition” value came out at 60 min. Also, the IC50 in assay [2] was 0.046 µM.
On to `Cc1ccccc1C(=O)N(C)c1ccc(C(=O)N2Cc3ccccc3Cc3ccccc32)cc1` [Example 167, N-[4-[ (6,11-Dihydro-5H-dibenz[b,e]azepin-5-yl)carbonyl]phenyl]-N-methyl-2-methylbenzamide], for which the IC50 in assay [1] was found to be 0.43 µM. Further, in the assay on vasopressin V2 (30 mg/kg orally), the Osmolality is recorded as 1544 mOsm/kg and the “Urine Volume” value is reported as 2 ml/4 hrs. In the assay on vasopressin V1 (10 mg/kg i.v.), the “MAX % Inhibition” value worked out at 70% and the “Time of max % inhibition” value was 180 min. This compound also had an IC50 in assay [2] of 0.51 µM.
Consider `O=C(Nc1ccc(C(=O)N2Cc3ccccc3Cc3ccccc32)cc1)c1cc(Cl)cc(Cl)c1Cl` [Example 249, N-[4-[(6,11-Dihydro-5H-dibenz[b,e]azepin-5-yl)-carbonyl]phenyl]-2,3 5-trichlorobenzamide], for which the inhibition at 10 µM was 88% in assay [1], 38% in assay [3] and 61% in assay [2].
The compound `O=C(Nc1ccc(C(=O)N2Cc3ccccc3Cc3ccccc32)cc1)c1c(Cl)cccc1Cl` [Example 252, N-[4-[(6,11-Dihydro-5H-dibenz[b,e]azepin-5-yl)-carbonyl]phenyl]-2,6-dichlorobenzamide] had an IC50 in assay [1] of 0.26 µM. Moreover, in the assay with vasopressin V2 (10 mg/kg orally), the Osmolality turned out to be 790 mOsm/kg and the “Urine Volume” value came out at 7.5 ml/4 hrs. In addition, in the assay with vasopressin V1 (30 mg/kg i.v.), the “MAX % Inhibition” value is 75% and the “Time of max % inhibition” value stood at 120 min. Also, the IC50 in assay [2] is 0.26 µM.
For the compound `O=C(Nc1ccc(C(=O)N2Cc3ccccc3Cc3ccccc32)c(Cl)c1)c1ccc(Cl)cc1Cl` [Example 256, N-[4-[(6,11-Dihydro-5H-dibenz[b,e]azepin-5-yl)-carbonyl]-3-chlorophenyl]-2,4-dichlorobenzamide], the figures for the IC50 in assay [1], in assay [3] (first part of Table V) and in assay [2] were 0.054 µM, 6.5 µM and 0.1 µM, respectively. The inhibition at 10 µM in assay [3] is 47%.
Regarding `Cc1ccccc1COC(=O)c1ccc(C(=O)N2Cc3ccccc3Cc3ccccc32)cc1` [Example 266, (2-Methylphenyl)methyl 4-[(6,11-dihydro-5H-dibenz[b,e]azepin-5-yl)carbonyl)benzoate], in the assay with vasopressin V2 (10 mg/kg orally), the Osmolality is 1186 mOsm/kg and the “Urine Volume” value is 4.3 ml/4 hrs. Also, in the assay with vasopressin V1 (30 mg/kg i.v.), the “MAX % Inhibition” value worked out at 21% and the “Time of max % inhibition” value turned out to be 120 min. In assay [3], this compound yielded an inhibition at 10 µM of 15%.
With `Cc1ccccc1C(=O)Nc1ccc(C(=O)N2CCc3cnoc3-c3ccccc32)cc1` [Example 345, N-[4-[(4,5-Dihydro-6H-isoxazolo[4,5-d][1]benzazepin-6-yl)carbonyl]phenyl]-2-methylbenzamide], the inhibition at 10 µM in assay [1] came out at 81%; in assay [3], 2%; in assay [2], 99%.
On to `O=C(c1ccc(NS(=O)(=O)c2ccccc2Cl)cc1)N1Cc2ccccc2Cc2ccccc21` [Example 450, 5-[4-[[(2-Chlorophenyl)sulfonyl]amino]benzoyl]-6,11-dihydro-5H-dibenz [b,e]azepine], for which the inhibition at 10 µM worked out at 29% in assay [1], 33% in assay [3] and 87% in assay [2].

(Values after US5834461A, “Tricyclic benzazepine vasopressin antagonists” (American Cyanamid Company, priority 1997, dated 1998).)
